This note sets out measurements from patent publication US12319672B2, “Alpha-D-galactopyranoside derivatives” (Idorsia Pharmaceuticals Ltd, priority 2019, dated 2025).

One assay has as its target human Gal-3 (hGal-3) (Homo sapiens (Human), UniProt P17931). The assay is described as follows: Competitive binding assay: binding of biotinylated hGal-3 to microplate-adsorbed asialofetuin (ASF). The note with it: Activity on hGal-3; mean values of several measurements. The essentials:
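Compounds in DMSO dilution series competed with 300-1000 ng/mL biotinylated hGal-3 for asialofetuin adsorbed on the plate (3 h, 4° C). Streptavidin-peroxidase at 80 ng/mL (1 h, 4° C) with ABTS gave a spectrophotometric read-out, and IC50 was reported as the mean of repeat runs.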

The target in another assay is human Gal-1 (hGal-1). The assay is described as follows: Competitive binding assay: binding of biotinylated hGal-1 to microplate-adsorbed asialofetuin (ASF). The note with it: Activities on hGal-1; mean values of several measurements. The essentials: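 For hGal-1, a variant with all six cysteines replaced by serines is preferred. Either galectin, biotinylated at 300-1000 ng/mL, competes with compound for microplate-bound ASF over 3 h at 4° C; peroxidase/ABTS detection gives IC50, averaged.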

SMILES strings stand for the structures. pIC50: −log10 of the molar value.

human Gal-3 (hGal-3), sequence (P17931 whole entry): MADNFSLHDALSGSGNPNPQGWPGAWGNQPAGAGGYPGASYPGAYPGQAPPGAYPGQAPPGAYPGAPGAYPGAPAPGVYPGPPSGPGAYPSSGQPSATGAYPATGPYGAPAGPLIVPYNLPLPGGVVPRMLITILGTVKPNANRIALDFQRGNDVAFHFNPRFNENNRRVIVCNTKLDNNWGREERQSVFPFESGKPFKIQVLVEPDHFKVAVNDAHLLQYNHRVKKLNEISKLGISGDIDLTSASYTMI
human Gal-1 (hGal-1), sequence (P09382 2-135 limits assumed): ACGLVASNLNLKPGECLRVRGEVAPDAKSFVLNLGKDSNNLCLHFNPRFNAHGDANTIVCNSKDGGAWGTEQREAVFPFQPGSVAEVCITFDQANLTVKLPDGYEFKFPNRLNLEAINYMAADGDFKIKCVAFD

As a reminder, the pIC50 is the negative decadic logarithm of the IC50, by convention in mol/L. A low value points to a high IC50. For `CC(C)(C)c1cc(C[C@H]2O[C@H](CO)[C@H](O)[C@H](n3cc(-c4cc(F)c(F)c(F)c4)nn3)[C@H]2OCC(=O)N2CCC(O)CC2)no1` [Example 2.41, 2-(((2R,3R,4S,5R,6R)-2-((5-(tert-butyl)isoxazol-3-yl)methyl)-5-hydroxy-6-(hydroxymethyl)-4-(4-(3,4,5-trifluorophenyl)-1H-1,2,3-triazol-1-yl)tetrahydro-2H-pyran-3-yl)oxy)-1-(4-hydroxypiperidin-1-yl)ethan-1-one], the pIC50 at human Gal-3 (hGal-3) was 7.00; on human Gal-1 (hGal-1) it was 5.23.

As for `CC(C)(C)c1cc(C[C@H]2O[C@H](CO)[C@H](O)[C@H](n3cc(-c4cc(F)c(F)c(F)c4)nn3)[C@H]2OCC(=O)N2CC[C@H](O)C2)no1` [Example 2.42, 2-(((2R,3R,4S,5R,6R)-2-((5-(tert-butyl)isoxazol-3-yl)methyl)-5-hydroxy-6-(hydroxymethyl)-4-(4-(3,4,5-trifluorophenyl)-1H-1,2,3-triazol-1-yl)tetrahydro-2H-pyran-3-yl)oxy)-1-((S)-3-hydroxypyrrolidin-1-yl)ethan-1-one], the negative logarithm of the IC50 (pIC50) is 6.74 on human Gal-3 (hGal-3) and 5.49 at human Gal-1 (hGal-1).

Consider `CC(C)(C)c1cc(C[C@H]2O[C@H](CO)[C@H](O)[C@H](n3cc(-c4ccc(F)c(F)c4F)nn3)[C@H]2OCC(=O)O)on1` [Example 2.43, 2-(((2R,3R,4S,5R,6R)-2-((3-(tert-butyl)isoxazol-5-yl)methyl)-5-hydroxy-6-(hydroxymethyl)-4-(4-(2,3,4-trifluorophenyl)-1H-1,2,3-triazol-1-yl)tetrahydro-2H-pyran-3-yl)oxy)acetic acid], for which the figures for the pIC50 at human Gal-3 (hGal-3) and on human Gal-1 (hGal-1) were 7.33 and 6.26, respectively.

Consider `CC1(c2cc(C[C@H]3O[C@H](CO)[C@H](O)[C@H](n4cc(-c5ccc(F)c(F)c5F)nn4)[C@H]3OCC(=O)O)on2)CC1` [Example 2.44, 2-(((2R,3R,4S,5R,6R)-5-hydroxy-6-(hydroxymethyl)-2-((3-(1-methylcyclopropyl)isoxazol-5-yl)methyl)-4-(4-(2,3,4-trifluorophenyl)-1H-1,2,3-triazol-1-yl)tetrahydro-2H-pyran-3-yl)oxy)acetic acid], for which the values for the pIC50 at human Gal-3 (hGal-3) and at human Gal-1 (hGal-1) were 7.40 and 6.29, respectively.

`Cc1ccc(-c2cn([C@H]3[C@@H](O)[C@@H](CO)O[C@H](Cc4cc(C(C)(C)C)no4)[C@@H]3OC(N)=O)nn2)c(F)c1F` [Example 2.45, (2R,3R,4S,5R,6R)-2-((3-(tert-butyl)isoxazol-5-yl)methyl)-4-(4-(2,3-difluoro-4-methylphenyl)-1H-1,2,3-triazol-1-yl)-5-hydroxy-6-(hydroxymethyl)tetrahydro-2H-pyran-3-yl carbamate]: the results for the pIC50 at human Gal-3 (hGal-3) and at human Gal-1 (hGal-1) were 7.66 and 5.62, respectively.

With `CC(C)(CO)c1cc(C[C@H]2O[C@H](CO)[C@H](O)[C@H](n3cc(-c4ccc(F)c(F)c4F)nn3)[C@H]2OCC(=O)O)on1` [Example 2.46, 2-(((2R,3R,4S,5R,6R)-5-hydroxy-2-((3-(1-hydroxy-2-methylpropan-2-yl)isoxazol-5-yl)methyl)-6-(hydroxymethyl)-4-(4-(2,3,4-trifluorophenyl)-1H-1,2,3-triazol-1-yl)tetrahydro-2H-pyran-3-yl)oxy)acetic acid], the negative-log IC50 (pIC50) at human Gal-3 (hGal-3) was 7.54; at human Gal-1 (hGal-1) it was 6.05.

Regarding `C#Cc1ccc(-c2cn([C@H]3[C@@H](O)[C@@H](CO)O[C@H](Cc4cc(C(C)(C)C)on4)[C@@H]3OC)nn2)c(F)c1F` [Example 2.47, (2R,3R,4S,5R,6R)-6-((5-(tert-butyl)isoxazol-3-yl)methyl)-4-(4-(4-ethynyl-2,3-difluorophenyl)-1H-1,2,3-triazol-1-yl)-2-(hydroxymethyl)-5-methoxytetrahydro-2H-pyran-3-ol], the pIC50 on human Gal-3 (hGal-3) was 6.64; at human Gal-1 (hGal-1), 5.36.

As for `CC(C)(C)c1cc(C[C@H]2O[C@H](CO)[C@H](O)[C@H](n3cc(-c4cc(F)c(F)c(F)c4)nn3)[C@H]2O)on1` [Example 2.48, (2R,3R,4R,5R,6R)-2-((3-(tert-butyl)isoxazol-5-yl)methyl)-6-(hydroxymethyl)-4-(4-(3,4,5-trifluorophenyl)-1H-1,2,3-triazol-1-yl)tetrahydro-2H-pyran-3,5-diol], the negative logarithm of the IC50 (pIC50) at human Gal-3 (hGal-3) was 7.01; on human Gal-1 (hGal-1) it was 5.98.

For the molecule `CC(C)(C)c1cc(C[C@H]2O[C@H](CO)[C@H](O)[C@H](n3cc(-c4ccc(F)c(F)c4F)nn3)[C@H]2O)on1` [Example 2.49, (2R,3R,4R,5R,6R)-2-((3-(tert-butyl)isoxazol-5-yl)methyl)-6-(hydroxymethyl)-4-(4-(2,3,4-trifluorophenyl)-1H-1,2,3-triazol-1-yl)tetrahydro-2H-pyran-3,5-diol], the values for the pIC50 on human Gal-3 (hGal-3) and at human Gal-1 (hGal-1) were 7.28 and 6.19, respectively.

Turning to `Cc1ccc(-c2cn([C@H]3[C@@H](O)[C@@H](CO)O[C@H](Cc4cc(C(C)(C)C)no4)[C@@H]3O)nn2)c(F)c1F` [Example 2.50, (2R,3R,4R,5R,6R)-2-((3-(tert-butyl)isoxazol-5-yl)methyl)-4-(4-(2,3-difluoro-4-methylphenyl)-1H-1,2,3-triazol-1-yl)-6-(hydroxymethyl)tetrahydro-2H-pyran-3,5-diol], the pIC50 on human Gal-3 (hGal-3) is 6.89; at human Gal-1 (hGal-1) it was 5.17.

Take `CCNC(=O)O[C@@H]1[C@@H](n2cc(-c3ccc(C)c(F)c3F)nn2)[C@@H](O)[C@@H](CO)O[C@@H]1Cc1cc(C(C)(C)C)no1` [Example 2.51, (2R,3R,4S,5R,6R)-2-((3-(tert-butyl)isoxazol-5-yl)methyl)-4-(4-(2,3-difluoro-4-methylphenyl)-1H-1,2,3-triazol-1-yl)-5-hydroxy-6-(hydroxymethyl)tetrahydro-2H-pyran-3-yl ethylcarbamate]: the values for the pIC50 at human Gal-3 (hGal-3) and at human Gal-1 (hGal-1) were 7.34 and < 4.00, respectively.

In the case of `Cc1ccc(-c2cn([C@H]3[C@@H](O)[C@@H](CO)O[C@H](Cc4cc(C(C)(C)C)no4)[C@@H]3OCc3nccn3C)nn2)c(F)c1F` [Example 2.52, (2R,3R,4S,5R,6R)-6-((3-(tert-butyl)isoxazol-5-yl)methyl)-4-(4-(2,3-difluoro-4-methylphenyl)-1H-1,2,3-triazol-1-yl)-2-(hydroxymethyl)-5-((1-methyl-1H-imidazol-2-yl)methoxy)tetrahydro-2H-pyran-3-ol], the pIC50 at human Gal-3 (hGal-3) is 7.11; at human Gal-1 (hGal-1), 5.29.

`Cc1ccc(-c2cn([C@H]3[C@@H](O)[C@@H](CO)O[C@H](Cc4cc(C(C)(C)C)no4)[C@@H]3OCc3nccs3)nn2)c(F)c1F` [Example 2.53, (2R,3R,4S,5R,6R)-6-((3-(tert-butyl)isoxazol-5-yl)methyl)-4-(4-(2,3-difluoro-4-methylphenyl)-1H-1,2,3-triazol-1-yl)-2-(hydroxymethyl)-5-(thiazol-2-ylmethoxy)tetrahydro-2H-pyran-3-ol]: the pIC50 is 7.28 on human Gal-3 (hGal-3) and 5.98 on human Gal-1 (hGal-1).

With `Cc1ccc(-c2cn([C@H]3[C@@H](O)[C@@H](CO)O[C@H](Cc4cc(C(C)(C)C)no4)[C@@H]3OCc3cscn3)nn2)c(F)c1F` [Example 2.54, (2R,3R,4S,5R,6R)-6-((3-(tert-butyl)isoxazol-5-yl)methyl)-4-(4-(2,3-difluoro-4-methylphenyl)-1H-1,2,3-triazol-1-yl)-2-(hydroxymethyl)-5-(thiazol-4-ylmethoxy)tetrahydro-2H-pyran-3-ol], the pIC50 on human Gal-3 (hGal-3) was 7.28; on human Gal-1 (hGal-1), 6.23.

For `Cc1ccc(-c2cn([C@H]3[C@@H](O)[C@@H](CO)O[C@H](Cc4cc(C(C)(C)C)no4)[C@@H]3OCc3cnco3)nn2)c(F)c1F` [Example 2.55, (2R,3R,4S,5R,6R)-6-((3-(tert-butyl)isoxazol-5-yl)methyl)-4-(4-(2,3-difluoro-4-methylphenyl)-1H-1,2,3-triazol-1-yl)-2-(hydroxymethyl)-5-(oxazol-5-ylmethoxy)tetrahydro-2H-pyran-3-ol], the pIC50 at human Gal-3 (hGal-3) is 6.92; on human Gal-1 (hGal-1), 5.57.

For `CO[C@@H]1[C@@H](n2cc(-c3cc(F)c(F)c(F)c3)nn2)[C@@H](O)[C@@H](CO)O[C@@H]1Cc1cc(C2(O)CCC2)no1` [Example 2.56, (2R,3R,4S,5R,6R)-6-((3-(1-hydroxycyclobutyl)isoxazol-5-yl)methyl)-2-(hydroxymethyl)-5-methoxy-4-(4-(3,4,5-trifluorophenyl)-1H-1,2,3-triazol-1-yl)tetrahydro-2H-pyran-3-ol], the pIC50 is 6.31 at human Gal-3 (hGal-3) and 5.75 on human Gal-1 (hGal-1).

On to `CO[C@@H]1[C@@H](n2cc(-c3ccc(Cl)c(F)c3F)nn2)[C@@H](O)[C@@H](CO)O[C@@H]1Cc1cc(C2(O)CCC2)no1` [Example 2.59, (2R,3R,4S,5R,6R)-4-(4-(4-chloro-2,3-difluorophenyl)-1H-1,2,3-triazol-1-yl)-6-((3-(1-hydroxycyclobutyl)isoxazol-5-yl)methyl)-2-(hydroxymethyl)-5-methoxytetrahydro-2H-pyran-3-ol], for which the pIC50 is 7.08 at human Gal-3 (hGal-3) and 5.64 at human Gal-1 (hGal-1).

Take `CO[C@@H]1[C@@H](n2cc(-c3cc(F)c(F)c(F)c3)nn2)[C@@H](O)[C@@H](CO)O[C@@H]1Cc1cc(C(C)(C)O)no1` [Example 2.60, (2R,3R,4S,5R,6R)-2-(hydroxymethyl)-6-((3-(2-hydroxypropan-2-yl)isoxazol-5-yl)methyl)-5-methoxy-4-(4-(3,4,5-trifluorophenyl)-1H-1,2,3-triazol-1-yl)tetrahydro-2H-pyran-3-ol]: the negative logarithm of the IC50 (pIC50) on human Gal-3 (hGal-3) is 6.40; at human Gal-1 (hGal-1), 5.13.

For `CO[C@@H]1[C@@H](n2cc(-c3ccc(F)c(F)c3F)nn2)[C@@H](O)[C@@H](CO)O[C@@H]1Cc1cc(C(C)(C)O)no1` [Example 2.61, (2R,3R,4S,5R,6R)-2-(hydroxymethyl)-6-((3-(2-hydroxypropan-2-yl)isoxazol-5-yl)methyl)-5-methoxy-4-(4-(2,3,4-trifluorophenyl)-1H-1,2,3-triazol-1-yl)tetrahydro-2H-pyran-3-ol], the pIC50 at human Gal-3 (hGal-3) was 6.96; at human Gal-1 (hGal-1), 6.11.
